In publication PMC9760738, “Pharmacokinetics, absorption, distribution, metabolism and excretion of the MEK inhibitor zapnometinib in rats” (Frontiers in Pharmacology, 2022):

Assays:
[1] = Plasma protein binding assay, dog plasma; type: in vitro ADME; conditions: data not shown
[2] = QWBA tissue radioactivity, single oral 30 mg/kg, female partially pigmented rats (Group 3); Table 6 columns c2-c8 = 0.5, 2, 4, 8, 24, 72, 168 h; type: in vivo, rat; conditions: 2 h
Experimental: (§1) The whole-body autoradiography techniques by Ullberg and Larsson was used in this study ([Ullberg and Larsson 1981]). Following a single oral administration of [^14C]-zapnometinib to seven male and seven female partially pigmented rats (Group 3) and four male albino rats (Group 4), one animal per sex (where appropriate) was killed at the following time points post dose: Group 3 (pigmented): 0.5, 2, 4, 8, 24, 72, and 168 h, Group 4 (albino): 2, 24, 72 and 168 h. At sacrifice, each rat was anaesthetized with isoflurane and a blood sample (ca 5 ml) was collected by cardiac puncture into a tube containing K2EDTA anticoagulant. Blood was centrifuged at 2000 ×g for 10 min at 4°C to obtain plasma, which was transferred into plain tubes pending measurement of radioactivity concentration. The blood cells were also retained for analysis.
(§2) The rat carcasses were immediately attached to a plate and frozen in a bath of n-heptane and solid CO2 at ca –80°C and then stored at –20 ± 10°C until taken for sectioning. […] [^14C]-Blood standards containing six different known concentrations of radioactivity were used to construct the calibration line for the quantitative determination of tissue concentrations of radioactivity. […] The electronic images of all sections were analyzed at Labcorp–Huntingdon using a validated image analysis package (Seescan Densitometry software, version 2.0). […]

[3] = QWBA tissue radioactivity, single oral 30 mg/kg, male partially pigmented rats (Group 3); 0.5, 2, 4, 8, 24, 72, 168 h; type: in vivo, rat
Experimental: as §1, §2

Question: Which Protein binding [1] does the source give for `O=C(O)c1ccc(F)c(F)c1Nc1ccc(I)cc1Cl` [zapnometinib, 2-(2-Chloro-4-iodophenylamino)-3,4-difluorobenzoic acid] here?
Answer: high protein binding

Question: What about the Unbound fraction [1] of the same compound?
Answer: very low

Question: And the “Radioactivity in all remaining tissues” value [2]?
Answer: ≤ 74.4 µg equivs/g

Question: What about the “Radioactivity in all remaining tissues” value ([3]; 2 h, male) of the same compound?
Answer: ≤ 70.0 μg equivs/g

Question: And the “Penetration into the brain” value ([3]; whole body autoradiography)?
Answer: low
